Experimental data published in patent publication US7125878B2, “Substituted pyrroline kinase inhibitors” (Janssen Pharmaceutica, priority 2002, dated 2006).
Where “and” joins values, the source holds several entries; their conditions need not be identical. Equal values may be shown once.

The compounds below were run against T1, recombinant rabbit GSK-3β protein (Oryctolagus cuniculus, UniProt G1T8E2) (assay: Glycogen Synthase Kinase-3 Assay (33P phosphorylation of PPI-2)). Conditions: @100 nM.
T1 construct: purchased New England Biolabs
T1 sequence (G1T8E2 1-432): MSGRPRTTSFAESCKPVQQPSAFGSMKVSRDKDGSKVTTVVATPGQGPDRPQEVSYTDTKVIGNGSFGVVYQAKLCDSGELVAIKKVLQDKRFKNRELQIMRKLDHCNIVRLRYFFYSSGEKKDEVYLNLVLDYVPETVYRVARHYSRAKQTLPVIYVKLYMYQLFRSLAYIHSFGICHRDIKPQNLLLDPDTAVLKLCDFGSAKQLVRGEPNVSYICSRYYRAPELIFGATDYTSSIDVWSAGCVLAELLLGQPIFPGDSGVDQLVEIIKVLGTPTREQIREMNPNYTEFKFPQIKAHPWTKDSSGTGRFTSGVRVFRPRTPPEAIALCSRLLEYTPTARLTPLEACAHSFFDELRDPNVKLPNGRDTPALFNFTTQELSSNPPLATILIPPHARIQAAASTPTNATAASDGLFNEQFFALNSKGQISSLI
Assay type: biochemical
Method: Glycogen Synthase Kinase-3 Assay
Compounds were tested for the ability to inhibit recombinant rabbit GSK-3β protein using the following protocol. The test compound was added to a reaction mixture containing Protein Phosphatase Inhibitor-2 (PPI-2) (Calbiochem) (45 ng), rabbit GSK-3β protein (New England Biolabs) (0.75 units) and ^33P-ATP (1 μCi) in 50 mM Tris-HCl (pH 8.0), 10 mM MgCl2, 0.1% BSA, 1 mM DTT and 100 μM Sodium Vanadate. The mixture was reacted for 90 minutes at 30° C. to allow phosphorylation of the PPI-2 protein and then the protein in the reaction was precipitated using 10% TCA. The precipitated protein was collected on filter plates (MultiScreen-DV/Millipore), which were subsequently washed. Finally, the radioactivity was quantified using a TopCount Scintillation Counter (Packard). […] Staurosporine or Valproate, known inhibitors of GSK-3β, were used as a positive control for screening.

Row | inhibition at 0.1 µM [%] | Structure (SMILES)
1 | 19 | O=C1NC(=O)C(c2cn(CCCO)c3ncccc23)=C1c1ncc[nH]1 [Cpd 17, 3-[1-(3-hydroxypropyl)-1H-pyrrolo[2,3-b]pyridin-3-yl]-4-(1H-imidazol-2-yl)-1H-pyrrole-2,5-dione]
2 | 56 | O=C1NC(=O)C(c2cn(CCCO)c3ncccc23)=C1c1n[nH]c2ccccc12 [Cpd 6, 3-[1-(3-hydroxypropyl)-1H-pyrrolo[2,3-b]pyridin-3-yl]-4-(1H-indazol-3-yl)-1H-pyrrole-2,5-dione]

Same assay, conditions: @1 μM; two numbers = different days

Row | inhibition at 1 µM [%] | Structure (SMILES)
3 | 32 | Cc1noc(C)c1C1=C(c2cn(CCCO)c3ncccc23)C(=O)NC1=O [Cpd 44, 3-(3,5-Dimethyl-isoxazol-4-yl)-4-[1-(3-hydroxy-propyl)-1H-pyrrolo[2,3-b]pyridin-3-yl]-pyrrole-2,5-dione]
4 | 43 | O=C1NC(=O)C(c2cn(CCCO)c3ncccc23)=C1c1c[nH]c(=O)[nH]c1=O [Cpd 68, 5-{4-[1-(3-Hydroxy-propyl)-1H-pyrrolo[2,3-b]pyridin-3-yl]-2,5-dioxo-2,5-dihydro-1H-pyrrol-3-yl}-1H-pyrimidine-2,4-dione]
5 | 39 | COc1ncc(C2=C(c3cn(CCCc4cccs4)c4ncccc34)C(=O)NC2=O)c(OC)n1 [Cpd 74, 3-(2,4-Dimethoxy-pyrimidin-5-yl)-4-[1-(3-thiophen-2-yl-propyl)-1H-pyrrolo[2,3-b]pyridin-3-yl]-pyrrole-2,5-dione]
6 | 23 | O=C1NC(=O)C(c2cn(CCCO)c3ncccc23)=C1c1ncccn1 [Cpd 56, 3-[1-(3-Hydroxy-propyl)-1H-pyrrolo[2,3-b]pyridin-3-yl]-4-pyrimidin-2-yl-pyrrole-2,5-dione]

Same assay, conditions: two numbers = data obtained on different days

Row | IC50 | Structure (SMILES)
7 | 140 nM and 59 nM | O=C1NC(=O)C(c2cn(CCCO)c3ncccc23)=C1c1ccoc1 [Cpd 67, 3-Furan-3-yl-4-[1-(3-hydroxy-propyl)-1H-pyrrolo[2,3-b]pyridin-3-yl]-pyrrole-2,5-dione]
8 | 10 nM | O=C1NC(=O)C(c2cn(CCCO)c3ncccc23)=C1c1ccc(F)cc1Cl [Cpd 10, 3-(2-chloro-4-fluorophenyl)-4-[1-(3-hydroxypropyl)-1H-pyrrolo[2,3-b]pyridin-3-yl]-1H-pyrrole-2,5-dione]
9 | 3 nM | COc1ccccc1C1=C(c2cn(CCCO)c3ncccc23)C(=O)NC1=O [Cpd 8, 3-[1-(3-hydroxypropyl)-1H-pyrrolo[2,3-b]pyridin-3-yl]-4-(2-methoxyphenyl)-1H-pyrrole-2,5-dione]
10 | 232 nM and 161 nM | O=C1NC(=O)C(c2cn(CCCO)c3ncccc23)=C1c1cc2n(n1)CCCC2 [Cpd 54, 3-[1-(3-Hydroxy-propyl)-1H-pyrrolo[2,3-b]pyridin-3-yl]-4-(4,5,6,7-tetrahydro-pyrazolo[1,5-a]pyridin-2-yl)-pyrrole-2,5-dione]
11 | 36 nM and 35 nM | COc1ncc(C2=C(c3cn(CCCC#N)c4ncccc34)C(=O)NC2=O)c(OC)n1 [Cpd 62, 4-{3-[4-(2,4-Dimethoxy-pyrimidin-5-yl)-2,5-dioxo-2,5-dihydro-1H-pyrrol-3-yl]-pyrrolo[2,3-b]pyridin-1-yl}-butyronitrile]
12 | 43 nM and 59 nM | COc1ncc(C2=C(c3cn(CCCOc4ccccc4)c4ncccc34)C(=O)NC2=O)c(OC)n1 [Cpd 76, 3-(2,4-Dimethoxy-pyrimidin-5-yl)-4-[1-(3-phenoxy-propyl)-1H-pyrrolo[2,3-b]pyridin-3-yl]-pyrrole-2,5-dione]
13 | 4 nM | O=C1NC(=O)C(c2cn(CCCO)c3ncccc23)=C1c1ccccc1C(F)(F)F [Cpd 11, 3-[1-(3-hydroxypropyl)-1H-pyrrolo[2,3-b]pyridin-3-yl]-4-[2-(trifluoromethyl)phenyl]-1H-pyrrole-2,5-dione]
14 | 360 nM | COCCn1cc(C2=C(c3cnc(OC)nc3OC)C(=O)NC2=O)c2cccnc21 [Cpd 71, 3-(2,4-Dimethoxy-pyrimidin-5-yl)-4-[1-(2-methoxy-ethyl)-1H-pyrrolo[2,3-b]pyridin-3-yl]-pyrrole-2,5-dione]
15 | 56 nM and 58 nM | O=C1NC(=O)C(c2cn(CCCO)c3ncccc23)=C1c1cnc(-c2ccccc2)o1 [Cpd 49, 3-[1-(3-Hydroxy-propyl)-1H-pyrrolo[2,3-b]pyridin-3-yl]-4-(2-phenyl-oxazol-5-yl)-pyrrole-2,5-dione]
16 | 211 nM and 143 nM | O=C1NC(=O)C(c2cn(CCCO)c3ncccc23)=C1c1ccco1 [Cpd 53, 3-Furan-2-yl-4-[1-(3-hydroxy-propyl)-1H-pyrrolo[2,3-b]pyridin-3-yl]-pyrrole-2,5-dione]
17 | 77 nM and 128 nM | Cn1ccc(C2=C(c3cn(CCCC#N)c4ncccc34)C(=O)NC2=O)n1 [Cpd 64, 4-{3-[4-(1-Methyl-1H-pyrazol-3-yl)-2,5-dioxo-2,5-dihydro-1H-pyrrol-3-yl]-pyrrolo[2,3-b]pyridin-1-yl}-butyronitrile]
18 | 123 nM and 106 nM | O=C1NC(=O)C(c2cccc3cccnc23)=C1c1cn(CCCO)c2ncccc12 [Cpd 42, 3-[1-(3-Hydroxy-propyl)-1H-pyrrolo[2,3-b]pyridin-3-yl]-4-quinolin-8-yl-pyrrole-2,5-dione]
19 | 480 nM and 660 nM | Cn1nccc1C1=C(c2cn(CCCO)c3ncccc23)C(=O)NC1=O [Cpd 66, 3-[1-(3-Hydroxy-propyl)-1H-pyrrolo[2,3-b]pyridin-3-yl]-4-(2-methyl-2H-pyrazol-3-yl)-pyrrole-2,5-dione]
20 | 150 nM and 187 nM | O=C1NC(=O)C(c2cn(CCCO)c3ncccc23)=C1C1=COCCO1 [Cpd 51, 3-(5,6-Dihydro-[1,4]dioxin-2-yl)-4-[1-(3-hydroxy-propyl)-1H-pyrrolo[2,3-b]pyridin-3-yl]-pyrrole-2,5-dione]
21 | 15 nM and 8 nM | O=C1NC(=O)C(c2cn(CCCO)c3ncccc23)=C1c1cc[nH]c1 [Cpd 24, 4-[1-(3-hydroxypropyl)-1H-pyrrolo[2,3-b]pyridin-3-yl]-[3,3′-bi-1H-pyrrole]-2,5-dione]
22 | 6 nM | O=C1NC(=O)C(c2cn(CCCO)c3ncccc23)=C1c1cccs1 [Cpd 14, 3-[1-(3-hydroxypropyl)-1H-pyrrolo[2,3-b]pyridin-3-yl]-4-(2-thienyl)-1H-pyrrole-2,5-dione]
23 | 77 nM and 102 nM | N#CCCCn1cc(C2=C(c3cnccn3)C(=O)NC2=O)c2cccnc21 [Cpd 63, 4-[3-(2,5-Dioxo-4-pyrazin-2-yl-2,5-dihydro-1H-pyrrol-3-yl)-pyrrolo[2,3-b]pyridin-1-yl]-butyronitrile]
24 | 36 nM | O=C1NC(=O)C(c2cn(CCCO)c3ncccc23)=C1c1ncc(C(F)(F)F)cc1Cl [Cpd 13, 3-[3-chloro-5-(trifluoromethyl)-2-pyridinyl]-4-[1-(3-hydroxypropyl)-1H-pyrrolo[2,3-b]pyridin-3-yl]-1H-pyrrole-2,5-dione]
25 | 158 nM and 51 nM | O=C1NC(=O)C(c2cn(CCCO)c3ncccc23)=C1C1=CCCCO1 [Cpd 23, 3-(3,4-dihydro-2H-pyran-6-yl)-4-[1-(3-hydroxypropyl)-1H-pyrrolo[2,3-b]pyridin-3-yl]-1H-pyrrole-2,5-dione]
26 | 198 nM and 126 nM | O=C1NC(=O)C(c2cn(CCCO)c3ncccc23)=C1c1cc2ccccc2s1 [Cpd 43, 3-Benzo[b]thiophen-2-yl-4-[1-(3-hydroxy-propyl)-1H-pyrrolo[2,3-b]pyridin-3-yl]-pyrrole-2,5-dione]
27 | 47 nM and 38 nM | O=C1NC(=O)C(c2cn(CCCO)c3ncccc23)=C1c1ccn(Cc2ccccc2)c1 [Cpd 48, 1′-Benzyl-4-[1-(3-hydroxy-propyl)-1H-pyrrolo[2,3-b]pyridin-3-yl]-1′H-[3,3′]bipyrrolyl-2,5-dione]
28 | 71 nM and 44 nM | O=C1NC(=O)C(c2cn(CCCO)c3ncccc23)=C1c1cc2ccccc2o1 [Cpd 25, 3-(2-benzofuranyl)-4-[1-(3-hydroxypropyl)-1H-pyrrolo[2,3-b]pyridin-3-yl]-1H-pyrrole-2,5-dione]
29 | 380 nM | CCCCC1=C(c2cn(CCCO)c3ncccc23)C(=O)NC1=O [Cpd 70, 3-Butyl-4-[1-(3-hydroxy-propyl)-1H-pyrrolo[2,3-b]pyridin-3-yl]-pyrrole-2,5-dione]
30 | 11 nM | COc1cccc(C2=C(c3cn(CCCO)c4ncccc34)C(=O)NC2=O)c1 [Cpd 9, 3-[1-(3-hydroxypropyl)-1H-pyrrolo[2,3-b]pyridin-3-yl]-4-(3-methoxyphenyl)-1H-pyrrole-2,5-dione]
31 | 28 nM and 18 nM | O=C1NC(=O)C(c2cn(CCCO)c3ncccc23)=C1c1cccoc1=O [Cpd 45, 3-[1-(3-Hydroxy-propyl)-1H-pyrrolo[2,3-b]pyridin-3-yl]-4-(2-oxo-2H-pyran-3-yl)-pyrrole-2,5-dione]
32 | 67 nM and 95 nM | O=C1NC(=O)C(c2cn(CCCO)c3ncccc23)=C1c1ccc(O)c(O)c1 [Cpd 32, 3-(3,4-dihydroxyphenyl)-4-[1-(3-hydroxypropyl)-1H-pyrrolo[2,3-b]pyridin-3-yl]-1H-pyrrole-2,5-dione]
33 | 366 nM and 344 nM | O=C1NC(=O)C(c2cn(CCCc3ccccc3)c3ncccc23)=C1c1cncnc1 [Cpd 58, 3-[1-(3-Phenyl-propyl)-1H-pyrrolo[2,3-b]pyridin-3-yl]-4-pyrimidin-5-yl-pyrrole-2,5-dione]
34 | 38 nM and 37 nM | Cn1ccc(C2=C(c3cn(CCCO)c4ncccc34)C(=O)NC2=O)c1 [Cpd 46, 4-[1-(3-Hydroxy-propyl)-1H-pyrrolo[2,3-b]pyridin-3-yl]-1′-methyl-1′H-[3,3′]bipyrrolyl-2,5-dione]
35 | 519 nM and 424 nM | O=C1NC(=O)C(c2cn(CCCc3ccccc3)c3ncccc23)=C1c1cc2n(n1)CCC2 [Cpd 59, 3-(5,6-Dihydro-4H-pyrrolo[1,2-b]pyrazol-2-yl)-4-[1-(3-phenyl-propyl)-1H-pyrrolo[2,3-b]pyridin-3-yl]-pyrrole-2,5-dione]
36 | 100 nM | Cn1ccc(C2=C(c3cn(CCC#N)c4ncccc34)C(=O)NC2=O)n1 [Cpd 69, 3-{3-[4-(1-Methyl-1H-pyrazol-3-yl)-2,5-dioxo-2,5-dihydro-1H-pyrrol-3-yl]-pyrrolo[2,3-b]pyridin-1-yl}-propionitrile]
